Results published in patent publication US10385108B2, “Peptide analogs of alpha-melanocyte stimulating hormone” (Genzyme Corporation, priority 2008, dated 2019).
Values joined by “and” are separate entries in the source; they are usually repeats but may differ in a detail not shown here. Identical values can stand only once. Where a SMILES comes first, the peptide text is derived from it. [ ]: non-standard residue; d: D form. The star is where a group is joined. X1 = CCCCCCCCCCCCCCCCCC(=O)NCCCCCCN*

Tests used:
[1] = system: B16-F1 murine melanoma cells; assay: Intracellular cAMP in B16-F1 melanoma cells; assay type: cell-based; conditions: for cAMP levels (in words): peptide at 1 μg/ml; for EC50: B16-F1 cells, 10^-4-10^-11 M, 30 min, IBMX
Procedure: B16-F1 (melanoma cell line) cells from American Type Culture Collection (Manassas, Va.) were seeded into flat bottom 96 well plates at 5×10^4/well and cultured overnight in DMEM (Cambrex, Walkersville, Md.) supplemented with 2 mM glutamine, antibiotics (100 U/ml penicillin and 100 […]) and 10% heat-inactivated fetal bovine serum (Invitrogen, Grand Island, N.Y.). […] Cells were lysed and intracellular cAMP levels were measured by an enzyme immunoassay kit (Amersham Biosciences, Piscataway, N.J.). Forskolin (Sigma, St. Louis, Mo.) at 100 μM served as positive controls.
cAMP levels in B16-F1 melanoma cells after treatment with native α-MSH, RI α-MSH, or a scrambled control peptide were examined. The […] melanoma cell line expresses a high number of MCR1 receptors (3000-4000 receptors/cell) compared with macrophages cell lines which express only 100-200 receptors/cell. Therefore we selected to examine the effect of the RI α-MSH treatment on the melanoma cell line. Murine melanoma B16-F1 cells were treated with native α-MSH, RI α-MSH, or control scrambled peptide at concentrations 1 pg/ml-1 μg/ml. After 30 min, cells were lysed and intracellular cAMP was measured by an enzyme immunoassay. […] However, a higher concentration of RI α-MSH (100 ng/ml) was necessary to increase cAMP compared with native α-MSH which increased cAMP at a 10 pg/ml concentration. This difference in concentration of peptide necessary to increase cAMP levels may be the result of the binding affinity to the MCR1 receptor.
Murine melanoma B16-F1 cells were treated with native α-MSH, RI α-MSH, scrambled peptide control, KPV, or alanine substituted peptides of RI α-MSH at 1 μg/ml (FIG. 7B). […] Peptides designated 810, 811, and 812 have alanine substitutions in the central core tetrapeptide sequence (D-Trp D-Arg D-Phe D-His region; AA 5-8) (variant disclosed in SEQ ID NO:2) proposed to be involved in native α-MSH binding to the melanocortin receptor and its biological activity. […] The residues in the core tetrapeptide (wrfh) (variant disclosed in SEQ ID NO:2) and to a lesser extent, the methionine 4 of RI-MSH are critical for binding to MC1R.
B16-F1 murine melanoma cells were cultured into 96 well plates 5×10^4 cells/well overnight in media with L-glutamine and pen/strep and FBS. Media was removed and new media with IBMX was added to the cells for 1 hr. Cells were then treated with RI α-MSH, or RI α-MSH peptide analogs (890, 891, 892, 893, 894 or 895). Cells were lysed after 30 min using a cAMP assay kit and supernatant were used in the assay. Forskolin at 10 μM served as positive controls.
Intracellular cAMP was measured using a cAMP competition Assay Kit (Amersham Biosciences). All cell lysate samples were diluted 1:100 for analysis.
Murine melanoma B16-F1 cells were treated with RI α-MSH, or RI α-MSH analogs (869, 872, 880, 878, 886 and 890-895) at a concentration range of 10^−4-10^−11 M. cAMP levels from cells treated with RI α-MSH, or RI α-MSH analogs. […] See FIG. 22 for graphical data and Table 2 for EC50 data.

MC1R = MC1R (Homo sapiens, UniProt Q01726); assay: Competitive binding with 125I-NDP-MSH, HEK293 membrane preparations, MC1R; conditions: for Ki: Ki MC1R, competition with 125I-NDP-MSH;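 as to all read-outs here: Read-out: receptor-bound radioligand retained by filtration and counted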
Procedure: (§1) Binding analysis was done by Cerep laboratories (Paris, France) with coded samples.
(§2) The mixtures were filtered through 96-well GFC filters (Millipore, Billerica, Mass.), washed 3 times with binding buffer without BSA, dried and counted.
(§3) A competitive binding assay using a MCR panel including MCR 1, 3, 4, and 5 was performed.

MC5R = MC5R (Homo sapiens, UniProt P33032); assay: Competitive binding with 125I-NDP-MSH, HEK293 membrane preparations, MC5R; conditions: Ki MC5R, competition with 125I-NDP-MSH; cells noted in μM
Procedure: as §1, §2, §3

MC3R = MC3R (Homo sapiens, UniProt P41968); assay: Competitive binding with 125I-NDP-MSH, HEK293 membrane preparations, MC3R
MC3R, sequence (P41968 whole entry): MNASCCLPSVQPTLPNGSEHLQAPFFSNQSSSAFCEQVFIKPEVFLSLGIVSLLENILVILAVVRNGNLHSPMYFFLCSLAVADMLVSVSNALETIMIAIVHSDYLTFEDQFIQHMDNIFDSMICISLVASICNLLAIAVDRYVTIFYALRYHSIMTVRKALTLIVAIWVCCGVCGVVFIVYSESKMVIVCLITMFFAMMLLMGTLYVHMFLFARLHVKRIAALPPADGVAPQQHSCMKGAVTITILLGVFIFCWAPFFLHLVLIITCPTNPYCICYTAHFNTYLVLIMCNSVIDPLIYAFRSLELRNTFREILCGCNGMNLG
Procedure: as §1, §2, §3

MC1R, sequence (Q01726 whole entry): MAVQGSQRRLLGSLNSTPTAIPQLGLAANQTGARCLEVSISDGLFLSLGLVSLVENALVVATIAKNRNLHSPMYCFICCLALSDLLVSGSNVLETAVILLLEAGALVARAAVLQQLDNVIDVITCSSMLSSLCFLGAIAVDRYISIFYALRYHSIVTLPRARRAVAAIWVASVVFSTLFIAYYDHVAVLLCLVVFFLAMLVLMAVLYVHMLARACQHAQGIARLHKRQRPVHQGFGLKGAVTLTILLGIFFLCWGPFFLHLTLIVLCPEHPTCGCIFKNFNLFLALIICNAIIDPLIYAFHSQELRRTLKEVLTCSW
MC5R, sequence (P33032 whole entry): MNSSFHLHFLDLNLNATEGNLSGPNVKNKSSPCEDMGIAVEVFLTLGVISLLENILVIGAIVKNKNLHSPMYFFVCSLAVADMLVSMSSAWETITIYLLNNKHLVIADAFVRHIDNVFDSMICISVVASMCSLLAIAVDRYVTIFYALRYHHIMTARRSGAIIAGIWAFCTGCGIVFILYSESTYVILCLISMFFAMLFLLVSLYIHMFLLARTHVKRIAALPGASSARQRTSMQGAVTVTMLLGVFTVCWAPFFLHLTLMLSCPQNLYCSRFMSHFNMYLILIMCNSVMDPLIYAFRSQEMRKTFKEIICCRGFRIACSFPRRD

SMILES	cAMP levels (in words) [1]	Ki (MC1R)	other results
C=C[C@@]1(C)CC(=O)[C@]2(O)[C@@]3(C)[C@@H](O)CCC(C)(C)[C@@H]3[C@H](O)[C@H](OC(C)=O)[C@@]2(C)O1 [Forskolin, reference compound]			cAMP ([1]; 100 μM, positive control): 3455.39±406.6 and 3294.82±54.53
CC(=O)N[C@@H](C(=O)N1CCC[C@@H]1C(=O)N[C@H](CCCCN)C(=O)NCC(=O)N[C@H](Cc1c[nH]c2ccccc12)C(=O)N[C@H](CCCNC(=N)N)C(=O)N[C@H](Cc1ccccc1)C(=O)N[C@H](Cc1c[nH]cn1)C(=O)N[C@H](CCC(=O)O)C(=O)N[C@H](C)C(=O)N[C@H](CO)C(=O)N[C@H](Cc1ccc(O)cc1)C(=O)N[C@H](CO)C(N)=O)C(C)C [compound 807, vpkGwrfheasys] (Ac-[dV][dP][dK]G[dW][dR][dF][dH][dE][dA][dS][dY][dS]-NH2)	reduction in cAMP accumulation	1400 ± 190 nM	
CSCC[C@@H](NC(=O)[C@@H](CCC(=O)O)NC(=O)[C@@H](C)NC(=O)[C@@H](Cc1ccccc1)NC(=O)[C@@H](CCCNC(=N)N)NC(=O)[C@@H](Cc1c[nH]c2ccccc12)NC(=O)CNC(=O)[C@@H](CCCCN)NC(=O)[C@H]1CCCN1C(=O)[C@H](NC(C)=O)C(C)C)C(=O)N[C@H](CO)C(=O)N[C@H](Cc1ccc(O)cc1)C(=O)N[C@H](CO)C(N)=O [compound 809, vpkGwrfaemsys] (Ac-[dV][dP][dK]G[dW][dR][dF][dA][dE][dM][dS][dY][dS]-NH2)	reduction in cAMP accumulation	1200 ± 270 nM	
CSCC[C@@H](NC(=O)[C@@H](CCC(=O)O)NC(=O)[C@@H](Cc1c[nH]cn1)NC(=O)[C@@H](C)NC(=O)[C@@H](CCCNC(=N)N)NC(=O)[C@@H](Cc1c[nH]c2ccccc12)NC(=O)CNC(=O)[C@@H](CCCCN)NC(=O)[C@H]1CCCN1C(=O)[C@H](NC(C)=O)C(C)C)C(=O)N[C@H](CO)C(=O)N[C@H](Cc1ccc(O)cc1)C(=O)N[C@H](CO)C(N)=O [compound 810, vpkGwrahemsys]	no increase in cAMP activity		
CSCC[C@@H](NC(=O)[C@@H](CCC(=O)O)NC(=O)[C@@H](Cc1c[nH]cn1)NC(=O)[C@@H](Cc1ccccc1)NC(=O)[C@@H](C)NC(=O)[C@@H](Cc1c[nH]c2ccccc12)NC(=O)CNC(=O)[C@@H](CCCCN)NC(=O)[C@H]1CCCN1C(=O)[C@H](NC(C)=O)C(C)C)C(=O)N[C@H](CO)C(=O)N[C@H](Cc1ccc(O)cc1)C(=O)N[C@H](CO)C(N)=O [compound 811, vpkGwafhemsys] (Ac-[dV][dP][dK]G[dW][dA][dF][dH][dE][dM][dS][dY][dS]-NH2)	no increase in cAMP activity		
CSCC[C@@H](NC(=O)[C@@H](CCC(=O)O)NC(=O)[C@@H](Cc1c[nH]cn1)NC(=O)[C@@H](Cc1ccccc1)NC(=O)[C@@H](CCCNC(=N)N)NC(=O)[C@@H](C)NC(=O)CNC(=O)[C@@H](CCCCN)NC(=O)[C@H]1CCCN1C(=O)[C@H](NC(C)=O)C(C)C)C(=O)N[C@H](CO)C(=O)N[C@H](Cc1ccc(O)cc1)C(=O)N[C@H](CO)C(N)=O [compound 812, vpkGarfhemsys] (Ac-[dV][dP][dK]G[dA][dR][dF][dH][dE][dM][dS][dY][dS]-NH2)	no increase in cAMP activity		
CSCC[C@@H](NC(=O)[C@@H](CCC(=O)O)NC(=O)[C@@H](CCCNC(=N)N)NC(=O)[C@@H](Cc1ccccc1)NC(=O)[C@@H](CCCNC(=N)N)NC(=O)[C@@H](Cc1c[nH]c2ccccc12)NC(=O)CNC(=O)[C@@H](CCCCN)NC(=O)[C@H]1CCCN1C(=O)[C@H](NC(C)=O)C(C)C)C(=O)N[C@H](CO)C(=O)N[C@H](Cc1ccc(O)cc1)C(=O)N[C@H](CO)C(N)=O [compound 872, vpkGwrfremsys]		13.5 nM	EC50 [1]: 2000 nM
CSCC[C@@H](NC(=O)[C@@H](CCC(=O)O)NC(=O)[C@@H](Cc1c[nH]c2ccccc12)NC(=O)[C@@H](Cc1ccccc1)NC(=O)[C@@H](CCCNC(=N)N)NC(=O)[C@@H](Cc1c[nH]c2ccccc12)NC(=O)CNC(=O)[C@@H](CCCCN)NC(=O)[C@H]1CCCN1C(=O)[C@H](NC(C)=O)C(C)C)C(=O)N[C@H](CO)C(=O)N[C@H](Cc1ccc(O)cc1)C(=O)N[C@H](CO)C(N)=O [compound 873, vpkGwrfwemsys] (Ac-[dV][dP][dK]G[dW][dR][dF][dW][dE][dM][dS][dY][dS]-NH2)		1900 nM	
CSCC[C@@H](NC(=O)[C@@H](CC(=O)O)NC(=O)[C@@H](Cc1c[nH]cn1)NC(=O)[C@@H](Cc1ccccc1)NC(=O)[C@@H](CCCNC(=N)N)NC(=O)[C@@H](Cc1c[nH]c2ccccc12)NC(=O)CNC(=O)[C@@H](CCCCN)NC(=O)[C@H]1CCCN1C(=O)[C@H](NC(C)=O)C(C)C)C(=O)N[C@H](CO)C(=O)N[C@H](Cc1ccc(O)cc1)C(=O)N[C@H](CO)C(N)=O [compound 875, vpkGwrfhdmsys] (Ac-[dV][dP][dK]G[dW][dR][dF][dH][dD][dM][dS][dY][dS]-NH2)		400 nM	
CSCC[C@@](C)(NC(=O)[C@@H](CCC(=O)O)NC(=O)[C@@H](Cc1c[nH]cn1)NC(=O)[C@@H](Cc1ccccc1)NC(=O)[C@@H](CCCNC(=N)N)NC(=O)[C@@H](Cc1c[nH]c2ccccc12)NC(=O)CNC(=O)[C@@H](CCCCN)NC(=O)[C@H]1CCCN1C(=O)[C@H](NC(C)=O)C(C)C)C(=O)N[C@H](CO)C(=O)N[C@H](Cc1ccc(O)cc1)C(=O)N[C@H](CO)C(N)=O [compound 877, vpkGwrfhe(α-methyl-D-Met)sys]		282 nM	
CC(=O)N[C@@H](C(=O)N1CCC[C@@H]1C(=O)N[C@H](CCCCN)C(=O)NCC(=O)N[C@H](Cc1c[nH]c2ccccc12)C(=O)N[C@H](CCCNC(=N)N)C(=O)N[C@H](Cc1ccccc1)C(=O)N[C@H](Cc1c[nH]cn1)C(=O)N[C@H](CCC(=O)O)C(=O)N[C@H](CCCCN)C(=O)N[C@H](CO)C(=O)N[C@H](Cc1ccc(O)cc1)C(=O)N[C@H](CO)C(N)=O)C(C)C [compound 879, vpkGwrfheksys] (Ac-[dV][dP][dK]G[dW][dR][dF][dH][dE][dK][dS][dY][dS]-NH2)		832 nM	
CCCCCCCCCCCCCCCCCC(=O)NCCCCCCNC(=O)[C@@H](Cc1c[nH]cn1)NC(=O)[C@H](Cc1ccccc1)NC(=O)[C@@H](CCCNC(=N)N)NC(=O)[C@@H](Cc1c[nH]c2ccccc12)NC(C)=O [compound 882, wrFh] (Ac-[dW][dR]F[dH]-X1)			improvement of binding to MC1R by stearyl addition to the core tetrapeptide (MC1R; relative to the unmodified tetrapeptide): > 250 fold
CSCC[C@@H](NC(=O)[C@@H](CCC(=O)O)NC(=O)[C@@H](Cc1c[nH]cn1)NC(=O)[C@H](Cc1ccccc1)NC(=O)[C@@H](CCCNC(=N)N)NC(=O)[C@@H](Cc1c[nH]c2ccccc12)NC(=O)CNC(=O)[C@@H](CCCCN)NC(=O)[C@H]1CCCN1C(=O)[C@H](NC(C)=O)C(C)C)C(=O)N[C@H](CO)C(=O)N[C@H](Cc1ccc(O)cc1)C(=O)N[C@H](CO)C(N)=O [compound 884, vpkGwrFhemsys]		72 nM	Ki (MC5R): > 30 µM; reduction in binding to MC1R, inversion of D-Phe to L-Phe in the RI sequence (MC1R; relative to RI-MSH): 20 fold; Ki (MC3R): > 30000 nM
CSCC[C@H](NC(=O)[C@H](CO)NC(=O)[C@H](Cc1ccc(O)cc1)NC(=O)[C@H](CO)NC(C)=O)C(=O)N[C@@H](CCC(=O)O)C(=O)N[C@@H](Cc1c[nH]cn1)C(=O)N[C@@H](CC1CCCCC1)C(=O)N[C@@H](CCCNC(=N)N)C(=O)N[C@@H](Cc1c[nH]c2ccccc12)C(=O)NCC(=O)N[C@@H](CCCCN)C(=O)N1CCC[C@H]1C(=O)N[C@H](C(N)=O)C(C)C [compound 892, SYSMEH(L-Cha)RWGKPV]		0.51 nM	EC50 [1]: 21 nM
